Structures are written as SMILES.

A short description of data set [1]: Parallel artificial membrane permeability assay (PAMPA). Type of data set: in vitro ADME. Conditions: 200 μM initial concentration, pH 7.4, 4 hours, room temperature; for Papp at 4 h, 200 μM: PAMPA, read-out: Effective permeability Pe. The protocol: Parallel artificial membrane permeability assay (PAMPA) described in Kansy M et al., J. Med. Chem. 1998; 41(7):1007-10 was used to determine the capacity of compounds to cross the Blood-Brain Barrier (BBB) by passive diffusion (Di L et al., Eur. J. Med. Chem. 2003; 38(3):223-32). The effective permeability (Pe) of the compounds was measured at an initial concentration of 200 μM. The buffer solution was prepared from a commercial concentrated one following the manufacturer's instructions. pH was adjusted to 7.4 using a 0.5 M NaOH solution. A stock solution of new compound was prepared in DMSO and diluted with buffer solution to a final 200 μM concentration (0.5% DMSO content). The PAMPA sandwich was separated and each donor well was filled with 200 μL of the compound solution. The acceptor plate was placed into the donor plate, ensuring that the underside of the membrane was in contact with buffer. 4 μL of the mixture of phospholipids (20 mg/mL) in dodecane was added to the filter of each well, and 200 μL of buffer solution was added to the each acceptor well. The plate was covered and incubated at room temperature in a saturated humidity atmosphere for 4 hours under orbital agitation at 100 rpm. After 4 hours, the contents of the acceptor and donor compartments were analyzed by HPLC: 150 μL of each well from the donor plate and 150 μL of each well from the acceptor plate were transferred to HPLC vials, injecting each sample into a reverse-phase C18 column (150 mm×4.6 mm×5 μm, 100 Å) (100 μL/injection from the acceptor wells, 10 μL/injection from the donor wells and for t0 references). Transport was also confirmed by MALDI-TOF spectrometry.
The phospholipid mixture used was a porcine polar brain lipid extract, provided by Avanti polar lipids, with the following composition: 12.6% phosphatidylcholine (PC), 33.1% phosphatidylethanolamine (PE), 18.5% phosphatidylserine (PS), 4.1% phosphatidylinositol (PI), 0.8% phosphatidic acid and 30.9% of other compounds.
The effective permeability (Pe) after 4 hours was calculated using equation 2 and the percentage of transport was calculated using equation 3:
[formula] wherein: t is time (h) CA(t) is the compound concentration in the acceptor well at time t and CD(to) is the compound concentration in the donor well at to.

The target in data set [2] is human prolyl oligopeptidase (Homo sapiens (Human), UniProt P48147). The data set can be described thus: POP inhibition assay (Z-G-P-AMC substrate, fluorimetric). The format is biochemical. The note with it: Conditions B: 100 mM Tris-acetate, 10 mM BSA, 1 mM DTT, pH 7.3, hPOP 10 nM; read-out: IC50, inhibition of human prolyl oligopeptidase, measured in conditions B. The protocol: Expression and Purification of Prolyl Oligopeptidase (POP)
Sequence of human prolyl oligopeptidase (P48147 whole entry, the tested form may be a part): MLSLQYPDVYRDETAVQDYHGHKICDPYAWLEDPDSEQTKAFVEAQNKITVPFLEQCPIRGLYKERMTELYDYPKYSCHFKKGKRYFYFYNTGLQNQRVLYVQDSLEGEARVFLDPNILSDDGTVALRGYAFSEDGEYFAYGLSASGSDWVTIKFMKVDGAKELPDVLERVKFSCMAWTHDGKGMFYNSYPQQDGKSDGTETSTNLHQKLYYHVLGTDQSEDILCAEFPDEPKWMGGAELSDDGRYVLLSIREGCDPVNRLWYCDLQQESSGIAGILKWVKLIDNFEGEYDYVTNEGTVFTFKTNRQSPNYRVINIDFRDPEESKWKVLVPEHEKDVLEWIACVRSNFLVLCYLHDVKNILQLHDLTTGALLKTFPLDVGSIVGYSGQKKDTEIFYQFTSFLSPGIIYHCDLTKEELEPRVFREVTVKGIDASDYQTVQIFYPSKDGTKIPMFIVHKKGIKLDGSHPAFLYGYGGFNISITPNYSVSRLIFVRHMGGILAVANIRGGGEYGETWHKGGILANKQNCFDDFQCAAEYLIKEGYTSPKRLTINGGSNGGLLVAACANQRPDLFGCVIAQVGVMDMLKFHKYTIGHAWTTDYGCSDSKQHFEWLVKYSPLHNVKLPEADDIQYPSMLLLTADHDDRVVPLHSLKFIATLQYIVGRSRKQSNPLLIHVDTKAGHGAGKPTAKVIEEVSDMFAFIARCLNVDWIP
POP was obtained by expression in E. coli and affinity purification using a His tail fusion according to a literature procedure (Tarragó T et al., ChemBioChem 2006; 7:827-33) summarized below:
hPOP expression: E. coli BL21 competent cells were transformed with pETM10 hPOP. To induce expression, a pre-culture of LB medium (50 mL) containing kanamycin (50 μg/mL) was inoculated with one colony and was grown overnight at 37° C. Next day, two cultures of LB medium (500 mL) were inoculated with the overnight culture (10 mL). The inoculated cultures were grown at 37° C. and 220 rpm until the OD595 was 1.2 (2.5-3 hours). IPTG was then added (final concentration of 1 mM) and induction was performed overnight at 25° C. Cells were harvested (3500 g, 15 min, 4° C.) and the pellet was suspended in suspension buffer (50 mL) [Tris-HCl pH 8 (50 mM), NaCl (300 mM), imidazole (1 mM)] and sonicated with use of four cycles (each consisting of 15 sec of sonication and 15 sec of rest) at an intensity of 50% and 0.5 pulses, the sample being kept on ice. After sonication, the sample was centrifuged (40 000 g, 30 min, 4° C.) and the supernatant was used immediately for POP purification. An ÁKTA explorer FPLC system was used for purification. The supernatant was applied at a flow of 1 mL/min to a HiTrapQuelating column (5 mL) previously equilibrated with 5 column volumes of suspension buffer. The column was washed with suspension buffer until the absorbance at 280 nm returned to basal level. The column was then rinsed with 5 volumes of washing buffer (50 mM Tris-HCl, pH 8, 300 mM NaCl, 30 mM imidazole). The elution was performed with 4 volumes of elution buffer (50 mM Tris-HCl, pH 8, 300 mM NaCl, 500 mM imidazole). Fractions (4 mL) were collected during the entire elution. POP activity was checked in all fractions and positive ones were analyzed by SDS-PAGE and stained with Biosafe Comassie Stain G-250. Positive fractions were collected and desalted by use of a HiPrep 26/10 Desalting column with Tris-HCl (50 mM, pH 8) as buffer. Recombinant hPOP was quantified with the Bio-Rad Protein Assay with BSA as standard. Aliquots of the recombinant enzyme were prepared and immediately frozen with liquid nitrogen and stored at −80° C.
POP activity was determined following the method described by Toide et al (Toide K et al., J. Pharmacol. Exp. Ther. 1995; 274:1370-8), using Z-G-P-AMC (N-benzyloxycarbonyl-Gly-Pro-methylcoumarinyl-7-amide) as POP substrate. The reactions were performed in 96-well microtiter plates, which allowed simultaneous monitoring of multiple reactions. For each reaction, activity buffer (134 μl, 100 mM Na/K phosphate buffer, pH 8.0) was pre-incubated for 15 min at 37° C. with hPOP (ranging from 20 to 60 nM, depending on the activity of the hPOP batch) and the corresponding new compound solution (3 μl). A stock solution of new compound was prepared in DMSO (100 mM), and dilutions were prepared from this stock solution with DMSO. Alternatively, the reactions were performed using another activity buffer (141 μL, 100 mM Tris-acetate, […], 1 mM DTT, pH 7.3), pre-incubating with hPOP (10 nM) and the corresponding new compound solution (3 μl) (Conditions B).
After preincubation, Z-G-P-AMC (10 μl, 3 mM in 40% 1,4-dioxane) was added (3 μl, 1.5 mM in 40% of 1,4-dioxane, in Conditions B), and the reaction was incubated for 1 hour at 37° C. The reaction was stopped by adding sodium acetate (150 μl, 1 M, pH 4) and the formation of AMC was measured fluorimetrically. The excitation and emission wavelengths were 360/40 and 485/20 nm, respectively.
Several concentration points (ranging from 25 μM to 400 μM) were measured for each compound. The inhibitory activity on prolyl oligopeptidase was calculated according to eq 1. For each new compound, the fluorescence in the presence (a) and in the absence of hPOP (b) was measured. […]

For the next data set, the target named is POP (Homo sapiens (Human), UniProt P48147). Conditions: non-competitive POP inhibitor; Park D H et al., Fitoterapia 2010; read-out: IC50 (POP inhibition); cited from earlier work.
Sequence of POP (P48147 whole entry): as the sequence (P48147 whole entry, the tested form may be a part) above

Consider `N#C[C@@H]1CCCN1C(=O)[C@@H]1CC(F)(F)CN1C(=O)c1cccc(OCc2ccccc2)c1` [Example 18, (S)-1-((S)-1-(3-(benzyloxy)benzoyl)-4,4-difluoropyrrolidine-2-carbonyl)pyrrolidine-2-carbonitrile], for which, in data set [1], the “% T (percentage of transport)” value stood at 11.91% and the Papp at 4 h, 200 μM is 65.1 nm/s. The IC50 in data set [2] stood at 0.487 µM.

Regarding `N#C[C@@H]1CCCN1C(=O)[C@@H]1CC(F)(F)CN1C(=O)c1ccccc1OCc1ccccc1` [Example 19, (S)-1-((S)-1-(2-(benzyloxy)benzoyl)-4,4-difluoropyrrolidine-2-carbonyl)pyrrolidine-2-carbonitrile], in data set [1], the “% T (percentage of transport)” value came out at 17.55% and the Papp at 4 h, 200 μM was determined as 103 nm/s. In addition, the IC50 in data set [2] came to 0.255 µM.

As for `N#C[C@@H]1CCCN1C(=O)[C@@H]1CC(F)(F)CN1C(=O)c1ccc(OCc2ccccc2)c(C(F)(F)F)c1` [Example 20, (S)-1-((S)-1-(4-(benzyloxy)-3-(trifluoromethyl)benzoyl)-4,4-difluoropyrrolidine-2-carbonyl)pyrrolidine-2-carbonitrile], in data set [1], the “% T (percentage of transport)” value turned out to be 2.64% and the Papp at 4 h, 200 μM turned out to be 12.9 nm/s. Moreover, the IC50 in data set [2] came out at 0.0045 µM.

In the case of `N#C[C@@H]1CCCN1C(=O)[C@@H]1CC(F)(F)CN1C(=O)c1ccc(OCc2ccccc2)c(F)c1` [Example 21, (S)-1-((S)-1-(4-(benzyloxy)-3-fluorobenzoyl)-4,4-difluoropyrrolidine-2-carbonyl)pyrrolidine-2-carbonitrile], in data set [1], the “% T (percentage of transport)” value is reported as 10.43% and the Papp at 4 h, 200 μM is 55.7 nm/s. Also, the IC50 in data set [2] came out at 0.005 µM.

On to `O=C(/C=C/c1ccc(O)c(O)c1)O[C@H](Cc1ccc(O)c(O)c1)C(=O)O` [rosmarinic acid], for which the IC50 on POP is 63.7 µM.
